{
  "source": "patent US10695330B2",
  "about": "“Methods of treatment” (Global Blood Therapeutics, Inc., priority 2015, dated 2020)",
  "tested_on": "activated neutrophils",
  "assay": "Oxidative burst in activated neutrophils",
  "type": "cell-based",
  "settings": "in vitro",
  "source_text": "Reactive oxygen species (ROS) released from activated white blood cells cause lung injury as well as fibrotic changes in patients with IPF. […] Thus, the compounds described herein could also provide a method to inhibit the adverse effects of inflammation in a patient. Reduction in systemic pro-inflammatory cytokines (tumor necrosis alpha and interleukin-6) also has the potential to exert a broad anti-inflammatory effect which would supplement the beneficial effect of alleviation of hypoxemia via increased hemoglobin-O2 affinity.",
  "data": [
    {"compound": "O=Cc1ccc(CO)o1", "note": "[Compound 5-HMF, 5-hydroxymethyl-2-furfural, reference compound]", "values": [
      {"measurement": "anti-oxidative activity (oxidative burst)", "value": "does not display this activity"}
    ]}
  ]
}
